For series [1] the following is noted: Crystal; DTA.
Series [2] in a line: Molar enthalpy of transition or fusion. The note with it: Crystal; DSC.

Numbers after ± are expanded uncertainties.

As for `Cc1cc(C)[nH]n1` [3,5-dimethylpyrazole], in series [1], the Normal melting temperature is 108.60 ± 0.5 °C. The “Molar enthalpy of transition or fusion” value in series [2] turned out to be 3.94 ± 0.21 kcal/mol.

The values above are taken from the NIST ThermoML archive (doi:10.1016/j.jct.2017.02.011).
